Data published in ChEMBL document CHEMBL1201862, “PubChem BioAssay data set” (2004).
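Five compound concentrations were applied to cells in 96-well plates for 48 hours; endpoints were derived by simple linear interpolation of the resulting dose-response curve. GI50 = concentration required for 50% inhibition of growth.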 Active and inactive are the calls of the source. Rule as the data show it: active = GI50 up to about 1.1 µM and inactive = higher.

Columns and labels:
Test in all cases: growth of human tumour cells (NCI), 48 h
[1] = test system: Malme-3M
[2] = test system: OVCAR-4
[3] = test system: MDA-MB-231
[4] = test system: UACC-62
[5] = test system: NCI-H522
[6] = test system: SK-MEL-5
[7] = test system: A549
[8] = test system: EKVX
[9] = test system: COLO 205
[10] = test system: CCRF-CEM
[11] = test system: HL-60
[12] = test system: OVCAR-8
[13] = test system: KM12
[14] = test system: K562
[15] = test system: LOX IMVI
[16] = test system: RPMI-8226
[17] = test system: U-251
[18] = test system: NCI-H23
[19] = test system: SK-MEL-2
[20] = test system: SNB-19
[21] = test system: HOP-62
[22] = test system: T47D
[23] = test system: SK-OV-3
[24] = test system: SNB-75
[25] = test system: SW-620
[26] = test system: TK-10
[27] = test system: MCF7
[28] = test system: A498
[29] = test system: SF-268
[30] = test system: MDA-MB-435
[31] = test system: SR
[32] = test system: Hs-578T
[33] = test system: NCI-H460
[34] = test system: HCT-15
[35] = test system: NCI-H226
[36] = test system: CAKI-1
[37] = test system: SF-295
[38] = test system: HT-29
[39] = test system: IGROV-1
[40] = test system: OVCAR-5
[41] = test system: ACHN
[42] = test system: SF-539
[43] = test system: NCI/ADR-RES
[44] = test system: M14
[45] = test system: PC-3
[46] = test system: MOLT-4
[47] = test system: UO-31
[48] = test system: HCT-116
[49] = test system: OVCAR-3
[50] = test system: DU-145
[51] = test system: RXF 393
[52] = test system: MDA-N
[53] = test system: HCC 2998
[54] = test system: SK-MEL-28
[55] = test system: SN12C
[56] = test system: UACC-257
[57] = test system: HOP-92
[58] = test system: 786-0
[59] = test system: BT-549

Measured: GI50

COc1ccc(N2C(=O)C3c4[nH]c5cc(C)ccc5c4C4CCC(C(C)(C)C)CC4C3C2=O)cc1 (configuration not stated)
> 10 µM: [34]
inactive: [1] > 10 µM | [2] 4.36 µM | [3] > 10 µM | [4] 6.19 µM | [5] 8.63 µM | [6] > 10 µM | [7] > 10 µM | [8] 9.1 µM | [9] > 10 µM | [10] > 10 µM | [11] > 10 µM | [12] 4.88 µM | [13] > 10 µM | [14] > 10 µM | [15] 7.24 µM | [16] > 10 µM | [17] 5.43 µM | [18] > 10 µM | [19] > 10 µM | [20] > 10 µM | [21] 7.6 µM | [22] > 10 µM | [23] > 10 µM | [24] 2.59 µM | [25] > 10 µM | [26] > 10 µM | [27] > 10 µM | [28] 5.21 µM | [29] 5.75 µM | [30] > 10 µM | [31] > 10 µM | [32] 3.08 µM | [33] 7.62 µM | [35] > 10 µM | [36] > 10 µM | [37] 7.08 µM | [38] > 10 µM | [39] > 10 µM | [40] > 10 µM | [41] > 10 µM | [42] 4.19 µM | [43] 3.66 µM | [44] > 10 µM | [45] 5.24 µM | [46] > 10 µM | [47] > 10 µM | [48] > 10 µM | [49] > 10 µM | [50] > 10 µM | [51] > 10 µM | [52] > 10 µM | [53] > 10 µM | [54] > 10 µM | [55] > 10 µM

COC(=O)[C@@H]1OC(C)(c2ccccc2)O[C@H]1C(=O)OC
inactive: [1] > 100 µM | [2] > 100 µM | [3] > 100 µM | [4] > 100 µM | [56] > 100 µM | [5] > 100 µM | [6] > 100 µM | [7] > 100 µM | [8] > 100 µM | [9] > 100 µM | [10] 48.1 µM | [57] > 100 µM | [58] > 100 µM | [11] 4.52 µM | [12] > 100 µM | [13] > 100 µM | [14] > 100 µM | [15] > 100 µM | [16] > 100 µM | [17] > 100 µM | [18] > 100 µM | [19] > 100 µM | [20] > 100 µM | [21] > 100 µM | [22] > 100 µM | [23] > 100 µM | [24] > 100 µM | [25] > 100 µM | [26] > 100 µM | [27] > 100 µM | [28] > 100 µM | [29] > 100 µM | [30] > 100 µM | [31] > 100 µM | [32] > 100 µM | [33] > 100 µM | [35] > 100 µM | [36] > 100 µM | [37] > 100 µM | [38] > 100 µM | [39] > 100 µM | [40] > 100 µM | [41] > 100 µM | [42] > 100 µM | [43] > 100 µM | [44] > 100 µM | [45] > 100 µM | [46] > 100 µM | [47] > 100 µM | [49] > 100 µM | [50] > 100 µM | [51] > 100 µM | [52] > 100 µM | [53] 76.4 µM | [54] > 100 µM
> 100 µM: [34]

COc1cccc(C(=O)Oc2ccc(OS(=O)(=O)c3ccc(C)cc3)cc2)c1C#N
inactive: [1] 32.4 µM | [2] 52.5 µM | [3] 65.6 µM | [4] 87.3 µM | [56] 28.6 µM | [5] 86.7 µM | [6] 11.4 µM | [7] 23.6 µM | [8] 59.8 µM | [9] 71.4 µM | [10] 47.5 µM | [57] 41.6 µM | [58] 86.9 µM | [11] 34.1 µM | [12] 66.8 µM | [13] 61.1 µM | [14] 43 µM | [15] > 100 µM | [16] 36.8 µM | [17] > 100 µM | [18] 50.4 µM | [19] 66.5 µM | [20] > 100 µM | [21] > 100 µM | [22] 20.1 µM | [24] > 100 µM | [25] > 100 µM | [26] 78.7 µM | [27] 49.7 µM | [29] > 100 µM | [30] 55.5 µM | [31] 47.9 µM | [32] 86.7 µM | [33] 49.5 µM | [35] > 100 µM | [36] > 100 µM | [37] 55.6 µM | [38] 78.5 µM | [39] 29 µM | [40] > 100 µM | [41] 94 µM | [42] > 100 µM | [43] 33 µM | [44] 47.9 µM | [45] 43.3 µM | [46] 35.7 µM | [47] 28.3 µM | [48] 41.7 µM | [49] 29.9 µM | [50] 93.1 µM | [51] 37.6 µM | [52] 68.2 µM | [54] > 100 µM | [55] > 100 µM
74 µM: [34]

COC(=O)CC(CNC(=O)OCc1ccccc1)OCc1ccc(OC)cc1 (configuration not stated)
inactive: [1] > 100 µM | [2] 88.7 µM | [3] > 100 µM | [4] > 100 µM | [56] > 100 µM | [5] > 100 µM | [6] > 100 µM | [7] > 100 µM | [8] > 100 µM | [9] > 100 µM | [10] > 100 µM | [57] > 100 µM | [58] > 100 µM | [11] > 100 µM | [12] > 100 µM | [13] > 100 µM | [14] > 100 µM | [15] > 100 µM | [16] > 100 µM | [17] > 100 µM | [18] 67.5 µM | [19] > 100 µM | [20] > 100 µM | [23] > 100 µM | [24] > 100 µM | [25] > 100 µM | [26] > 100 µM | [27] > 100 µM | [28] > 100 µM | [30] > 100 µM | [31] > 100 µM | [59] 34 µM | [33] > 100 µM | [35] 66.2 µM | [36] > 100 µM | [37] > 100 µM | [39] > 100 µM | [40] > 100 µM | [41] > 100 µM | [42] > 100 µM | [43] > 100 µM | [44] > 100 µM | [45] 99.5 µM | [46] > 100 µM | [47] 50.6 µM | [48] > 100 µM | [49] > 100 µM | [50] > 100 µM | [51] > 100 µM | [52] > 100 µM | [53] > 100 µM | [54] > 100 µM | [55] > 100 µM
> 100 µM: [34]

O=S(=O)(O)c1ccc(/N=N/c2ccc(/N=N/c3c(O)ccc4ccccc34)c(S(=O)(=O)O)c2)cc1
> 100 µM: [34]
inactive: [1] > 100 µM | [3] > 100 µM | [4] > 100 µM | [56] > 100 µM | [5] > 100 µM | [6] > 100 µM | [7] > 100 µM | [8] > 100 µM | [9] > 100 µM | [10] > 100 µM | [57] > 100 µM | [58] > 100 µM | [11] > 100 µM | [12] > 100 µM | [13] > 100 µM | [14] > 100 µM | [16] > 100 µM | [17] > 100 µM | [18] > 100 µM | [19] > 100 µM | [20] > 100 µM | [21] > 100 µM | [23] > 100 µM | [24] 62.1 µM | [25] > 100 µM | [26] > 100 µM | [27] > 100 µM | [29] > 100 µM | [30] > 100 µM | [31] > 100 µM | [32] > 100 µM | [59] > 100 µM | [33] > 100 µM | [35] > 100 µM | [36] > 100 µM | [37] > 100 µM | [38] > 100 µM | [39] > 100 µM | [40] > 100 µM | [41] > 100 µM | [42] > 100 µM | [43] > 100 µM | [44] > 100 µM | [45] > 100 µM | [46] > 100 µM | [47] > 100 µM | [48] > 100 µM | [49] > 100 µM | [51] > 100 µM | [53] > 100 µM | [54] > 100 µM
